Here are results for 20 compounds from patent US9617240B2 (TEIJIN PHARMA LIMITED, priority 2013, dated 2017).

Test [1] deals with level of uric acid in the blood. The test can be described thus: Hypouricemic effect in normal rats. The class given is in vivo, Sprague-Dawley male rats. As to conditions: oral gavage, 1 mg/kg. The protocol:
A test compound suspended in a 0.5% methylcellulose solution was administered to 8 to 9 week-old Sprague-Dawley male rats (Japan Charles River Co.) by oral gavage administration using a feeding needle. After the blood was collected from the tail vein at 6 hours and 24 hours after administration, the plasma was separated. The level of uric acid in the blood sample was measured by uricase method using an absorption spectrometer as well as a uric acid determination kit (L type Wako UA F: Wako Pure Chemical Industries, Ltd.). The percentage of hypouricemic effect was determined by the following expression: Percentage of hypouricemic effect (%)=(Level of uric acid of the control animal−Level of uric acid of the test compound-administered animal)×100/Level of uric acid of the control animal.

The target in test [2] is T1, oxidase type xanthine oxidase (derived from buttermilk) (Bos taurus, UniProt P80457).
T1 construct: oxidase type xanthine oxidase (derived from buttermilk, supplied by Calbiochem Novabiochem Corp.); purchased Calbiochem Novabiochem Corp; host or cells: buttermilk (natural source)
T1 sequence (P80457 whole entry): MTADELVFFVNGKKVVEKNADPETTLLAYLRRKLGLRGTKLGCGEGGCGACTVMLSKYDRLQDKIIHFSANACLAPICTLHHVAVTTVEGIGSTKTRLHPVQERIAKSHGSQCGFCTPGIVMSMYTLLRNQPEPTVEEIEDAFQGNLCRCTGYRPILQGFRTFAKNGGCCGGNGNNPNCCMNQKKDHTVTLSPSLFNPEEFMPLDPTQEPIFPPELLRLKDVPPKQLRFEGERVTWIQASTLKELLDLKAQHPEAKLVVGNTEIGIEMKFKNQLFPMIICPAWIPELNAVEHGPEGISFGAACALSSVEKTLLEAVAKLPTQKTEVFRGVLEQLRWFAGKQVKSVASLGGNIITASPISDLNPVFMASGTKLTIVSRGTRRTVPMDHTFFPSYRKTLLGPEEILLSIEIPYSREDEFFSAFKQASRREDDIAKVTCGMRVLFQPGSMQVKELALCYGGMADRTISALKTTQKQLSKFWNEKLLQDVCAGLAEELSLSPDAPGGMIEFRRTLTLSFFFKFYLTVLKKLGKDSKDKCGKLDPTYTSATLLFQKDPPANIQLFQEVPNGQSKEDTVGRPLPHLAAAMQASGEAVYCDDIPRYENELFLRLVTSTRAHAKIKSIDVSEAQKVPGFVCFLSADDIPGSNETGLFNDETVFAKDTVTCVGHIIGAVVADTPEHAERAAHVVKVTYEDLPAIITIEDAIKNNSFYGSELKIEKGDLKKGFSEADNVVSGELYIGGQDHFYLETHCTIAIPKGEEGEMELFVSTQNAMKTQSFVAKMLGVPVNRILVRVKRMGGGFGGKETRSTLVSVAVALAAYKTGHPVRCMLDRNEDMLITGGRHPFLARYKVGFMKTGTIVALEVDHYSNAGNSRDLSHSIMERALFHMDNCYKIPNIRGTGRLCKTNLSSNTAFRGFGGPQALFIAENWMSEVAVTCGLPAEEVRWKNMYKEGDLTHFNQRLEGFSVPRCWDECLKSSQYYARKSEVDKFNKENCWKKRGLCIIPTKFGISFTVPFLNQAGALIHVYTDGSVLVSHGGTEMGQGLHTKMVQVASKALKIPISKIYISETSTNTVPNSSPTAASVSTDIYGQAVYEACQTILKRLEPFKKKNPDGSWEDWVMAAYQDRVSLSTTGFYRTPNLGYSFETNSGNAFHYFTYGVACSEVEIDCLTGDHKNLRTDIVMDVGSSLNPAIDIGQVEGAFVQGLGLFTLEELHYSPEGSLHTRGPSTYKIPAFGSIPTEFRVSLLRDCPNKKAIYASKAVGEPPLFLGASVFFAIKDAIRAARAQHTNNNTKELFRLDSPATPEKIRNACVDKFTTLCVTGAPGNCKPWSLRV
The test can be described thus: Xanthine oxidase inhibitory activity (absorbance change at 290 nm). The class given is biochemical. Particulars: xanthine substrate, 100 mM phosphate buffer, absorbance at 290 nm for 5 minutes; read-out: Inhibitory Activity (50% inhibitory concentration with respect to oxidase type xanthine oxidase). Summed up: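 Buttermilk xanthine oxidase (stock 30.6 mU/mL) was added to 30 μM xanthine stock in 100 mM phosphate buffer containing test compound (1% DMSO). Absorbance change at 290 nm was followed for 5 minutes. Inhibition was calculated against a DMSO control, and IC50 came from dose-response fitting.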

Test [3] concerns level of uric acid in the plasma. Description: Hypouricemic effect in beagle dogs. The class given is in vivo. Particulars: oral gavage, 3 mg/kg, 24 hours after administration. The protocol: The hypouricemic effect of the compound (I) in beagle dogs was confirmed. A test compound suspended in a 0.5% methyl cellulose solution was orally administered by gavage to beagle dogs (Kitayama Labes). Blood was drawn from the cephalic vein at 24 hours after administration and plasma was separated. The level of uric acid in the plasma sample was measured using an LC-MS/MS method and the percentage of hypouricemic effect was determined by the following expression: Percentage of hypouricemic effect (%)=(Level of uric acid of the control animal−Level of uric acid of the test compound-administered animal)×100/Level of uric acid of the control animal.

Test [4] concerns level of uric acid in the blood. The test can be described thus: Hypouricemic effect in Cebus apella monkeys. The class given is in vivo. As to conditions: gavage, 1 mg/kg. The protocol:
To Cebus apella monkeys, test compounds suspended in 0.5% methylcellulose solution were administered by gavage into the stomach through the nasal cavity using a disposable catheter and a syringe. Blood was taken from the saphenous vein at 4 hours and 24 hours after the administration, after which the plasma was separated. The level of uric acid in the blood was measured using a uric acid measurement kit (L type Wako UA F: Wako Pure Chemical Industries, Ltd.) by the uricase method using an absorption spectrometer and the percentage of hypouricemic effect was determined by the following expression: Percentage of hypouricemic effect (%)=(Level of uric acid of the control animal−Level of uric acid of the test compound-administered animal)×100/Level of uric acid of the control animal.

Turning to `N#Cc1cc(-n2cc(C(=O)O)cn2)ncc1-c1ccccc1` [Compound 1, 1-(4-cyano-5-phenylpyridin-2-yl)-1H-pyrazole-4-carboxylic acid], the “Percentage of hypouricemic effect” value was at least 70% in test [1] (6 hours after administration); at least 70% in test [1] (24 hours after administration); at least 50% in test [3]; at least 50% in test [4] (4 hours after administration); at least 50% in test [4] (24 hours after administration). The IC50 in test [2] was 1 to 5 nM. Take `N#Cc1cc(-n2cc(C(=O)O)cn2)ncc1-c1ccoc1` [Compound 23, 1-[4-cyano-5-(furan-3-yl)pyridin-2-yl]-1H-pyrazole-4-carboxylic acid]: in test [2], the IC50 fell in the range of 5 to 10 nM. The same measure, in the same setting: under `Cc1cc(-c2cnc(-n3cc(C(=O)O)cn3)cc2C#N)ccc1Cl` [Compound 51, 1-[4-cyano-5-(4-chloro-3-methylphenyl)pyridin-2-yl]-1H-pyrazole-4-carboxylic acid] stands 1 to 5 nM; under `N#Cc1cc(-n2cc(C(=O)O)cn2)ncc1-c1ccc(O)cc1` [Compound 16, 1-[4-cyano-5-(4-hydroxyphenyl)pyridin-2-yl]-1H-pyrazole-4-carboxylic acid], 1 to 5 nM. The same measure, in the same setting: under `N#Cc1cc(-n2cc(C(=O)O)cn2)cnc1-c1cc(F)ccc1F` [Compound 80, 1-[5-cyano-6-(2,5-difluorophenyl)pyridin-3-yl]-1H-pyrazole-4-carboxylic acid] stands at least 10 nM. For the compound `CN(C)c1ccc(-c2cnc(-n3cc(C(=O)O)cn3)cc2C#N)cn1` [Compound 59, 1-{4-cyano-5-[6-(dimethylamino)pyridin-3-yl]pyridin-2-yl}-1H-pyrazole-4-carboxylic acid], the IC50 in test [2] lay within 1 to 5 nM. Same read-out and setting: to `N#Cc1cc(-n2cc(C(=O)O)cn2)ncc1-c1ccc(Cl)cc1` [Compound 15, 1-[4-cyano-5-(4-chlorophenyl)pyridin-2-yl]-1H-pyrazole-4-carboxylic acid] belongs 1 to 5 nM; to `N#Cc1cc(-n2cc(C(=O)O)cn2)ncc1-c1ccc(C(=O)O)cc1` [Compound 42, 1-[5-(4-carboxyphenyl)-4-cyanopyridin-2-yl]-1H-pyrazole-4-carboxylic acid], 1 to 5 nM; to `CC(C)c1nn(-c2cc(C#N)c(-c3ccccc3)cn2)cc1C(=O)O` [Compound 27, 1-(4-cyano-5-phenylpyridin-2-yl)-3-(propan-2-yl)-1H-pyrazole-4-carboxylic acid], at least 10 nM. Still for that read-out and setting: to `Cc1ccc(-c2cnc(-n3cc(C(=O)O)cn3)cc2C#N)c(F)c1` [Compound 33, 1-[4-cyano-5-(2-fluoro-4-methylphenyl)pyridin-2-yl]-1H-pyrazole-4-carboxylic acid] belongs 1 to 5 nM. Same read-out and setting: under `CCOc1cccc(F)c1-c1cnc(-n2cc(C(=O)O)cn2)cc1C#N` [Compound 17, 1-[4-cyano-5-(2-ethoxy-6-fluorophenyl)pyridin-2-yl]-1H-pyrazole-4-carboxylic acid] stands 5 to 10 nM. On to `N#Cc1cc(-n2cc(C(=O)O)cn2)ncc1-c1cncc(F)c1` [Compound 60, 1-[4-cyano-5-(5-fluoropyridin-3-yl)pyridin-2-yl]-1H-pyrazole-4-carboxylic acid], for which the IC50 in test [2] was at least 10 nM. As to `COc1ccccc1-c1cnc(-n2cc(C(=O)O)cn2)cc1C#N` [Compound 7, 1-[4-cyano-5-(2-methoxyphenyl)pyridin-2-yl]-1H-pyrazole-4-carboxylic], the IC50 in test [2] is 1 to 5 nM.

As for `N#Cc1cc(-n2cc(C(=O)O)cn2)ncc1-c1ccc(F)c(Cl)c1` [Compound 40, 1-[4-cyano-5-(3-chloro-4-fluorophenyl)pyridin-2-yl]-1H-pyrazole-4-carboxylic acid], the IC50 in test [2] is 5 to 10 nM.

On to `Cc1nn(-c2cc(C#N)c(-c3ccccc3)cn2)c(C)c1C(=O)O` [Compound 28, 1-(4-cyano-5-phenylpyridin-2-yl)-3,5-dimethyl-1H-pyrazole-4-carboxylic acid], for which the IC50 in test [2] was at least 10 nM.

As to `COc1cnccc1-c1cnc(-n2cc(C(=O)O)cn2)cc1C#N` [Compound 24, 1-[4-cyano-5-(3-methoxypyridin-4-yl)pyridin-2-yl]-1H-pyrazole-4-carboxylic acid], the IC50 in test [2] is at least 10 nM.

For the compound `N#Cc1cc(-n2cc(C(=O)O)cn2)ncc1-c1cccc(OC(F)F)c1` [Compound 46, 1-{4-cyano-5-[3-(difluoromethoxy)phenyl]pyridin-2-yl}-1H-pyrazole-4-carboxylic acid], the IC50 in test [2] lay in the range of 5 to 10 nM. `N#Cc1cc(-n2cc(C(=O)O)cn2)ncc1-c1cccnc1` [Compound 25, 1-[4-cyano-5-(pyridin-3-yl)pyridin-2-yl]-1H-pyrazole-4-carboxylic acid]: the IC50 in test [2] is at least 10 nM. On the same count and under the same terms, to `Cc1ccc(F)c(-c2ccc(-n3cc(C(=O)O)cn3)nc2C#N)c1` [Compound 88, 1-[6-cyano-5-(2-fluoro-5-methylphenyl)pyridin-2-yl]-1H-pyrazole-4-carboxylic acid] belongs at least 10 nM; to `Cc1cccc(-c2cnc(-n3cc(C(=O)O)cn3)cc2C#N)c1` [Compound 10, 1-[4-cyano-5-(3-methylphenyl)pyridin-2-yl]-1H-pyrazole-4-carboxylic acid], 1 to 5 nM.
